How the values were obtained:
Test in all cases: Kinase profiling of R428
Type in all cases: biochemical
ALK4(h) = ALK4(h) (Homo sapiens, UniProt P36896); details: 100 μM ATP, lower number = more robust inhibition
Description: (§1) The efficiency of the AXL inhibitor R428 for targeting different kinases was assessed by Kinase Profiling Services using 100 μM ATP concentration (EMD Millipore). R428 was tested at 1 and 10 μM. Table IV lists the kinases profiled along with the efficiency in targeting the kinases with a lower number indicating a more robust inhibition of a particular kinase.

Aurora-A(h) = target: T1, Aurora-A(h) (Homo sapiens, UniProt O14965); details: for efficiency in targeting Aurora-A(h): 100 μM ATP, lower number = more robust inhibition
T1 sequence (O14965 1-403): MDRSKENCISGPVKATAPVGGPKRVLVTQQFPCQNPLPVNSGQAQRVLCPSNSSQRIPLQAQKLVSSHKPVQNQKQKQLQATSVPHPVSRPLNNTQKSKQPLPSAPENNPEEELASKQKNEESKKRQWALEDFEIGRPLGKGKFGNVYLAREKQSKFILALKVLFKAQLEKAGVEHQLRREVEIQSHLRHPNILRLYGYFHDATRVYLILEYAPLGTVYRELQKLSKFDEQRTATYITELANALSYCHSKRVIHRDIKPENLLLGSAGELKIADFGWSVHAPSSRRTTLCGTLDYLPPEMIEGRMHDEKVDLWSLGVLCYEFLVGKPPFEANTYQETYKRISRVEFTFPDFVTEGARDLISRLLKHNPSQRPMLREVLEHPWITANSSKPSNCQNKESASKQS
Description: as §1

Aurora-B(h) = Aurora-B(h) (Homo sapiens, UniProt Q96GD4); details: for efficiency in targeting Aurora-B(h): 100 μM ATP, lower number = more robust inhibition
Chain of Aurora-B(h) (Q96GD4 whole entry): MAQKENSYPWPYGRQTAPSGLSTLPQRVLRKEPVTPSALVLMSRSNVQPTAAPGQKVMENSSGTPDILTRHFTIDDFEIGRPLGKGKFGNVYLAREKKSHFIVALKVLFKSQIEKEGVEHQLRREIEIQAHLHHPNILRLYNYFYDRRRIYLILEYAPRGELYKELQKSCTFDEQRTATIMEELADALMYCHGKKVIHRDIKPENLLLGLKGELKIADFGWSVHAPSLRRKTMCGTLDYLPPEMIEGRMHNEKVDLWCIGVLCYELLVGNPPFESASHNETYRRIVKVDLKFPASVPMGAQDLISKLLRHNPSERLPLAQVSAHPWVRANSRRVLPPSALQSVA
Description: as §1

Blk(h) = Blk(h) (Homo sapiens, UniProt P51451); details: 100 μM ATP, lower number = more robust inhibition
Chain of Blk(h) (P51451 whole entry): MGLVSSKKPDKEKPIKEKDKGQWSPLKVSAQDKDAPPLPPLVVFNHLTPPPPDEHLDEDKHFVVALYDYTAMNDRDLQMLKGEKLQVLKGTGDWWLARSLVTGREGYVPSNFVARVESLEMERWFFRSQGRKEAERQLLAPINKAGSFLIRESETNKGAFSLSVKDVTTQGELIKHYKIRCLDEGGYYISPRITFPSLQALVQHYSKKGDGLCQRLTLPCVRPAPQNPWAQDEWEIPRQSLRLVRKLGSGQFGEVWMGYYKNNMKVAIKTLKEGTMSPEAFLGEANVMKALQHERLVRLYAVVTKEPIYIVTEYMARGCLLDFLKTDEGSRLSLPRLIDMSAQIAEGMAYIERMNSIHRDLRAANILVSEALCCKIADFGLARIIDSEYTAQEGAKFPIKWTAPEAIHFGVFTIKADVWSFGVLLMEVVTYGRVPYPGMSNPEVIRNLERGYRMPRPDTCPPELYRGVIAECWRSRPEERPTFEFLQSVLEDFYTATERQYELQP
Description: as §1

CDK1/cyclinB (Hh) = CDK1/cyclinB (Hh) (Homo sapiens, UniProt P06493); details: 100 μM ATP, lower number = more robust inhibition
Description: as §1

CHK1(h) = CHK1(h) (Homo sapiens, UniProt O14757); details: 100 μM ATP, lower number = more robust inhibition
Chain of CHK1(h) (O14757 whole entry): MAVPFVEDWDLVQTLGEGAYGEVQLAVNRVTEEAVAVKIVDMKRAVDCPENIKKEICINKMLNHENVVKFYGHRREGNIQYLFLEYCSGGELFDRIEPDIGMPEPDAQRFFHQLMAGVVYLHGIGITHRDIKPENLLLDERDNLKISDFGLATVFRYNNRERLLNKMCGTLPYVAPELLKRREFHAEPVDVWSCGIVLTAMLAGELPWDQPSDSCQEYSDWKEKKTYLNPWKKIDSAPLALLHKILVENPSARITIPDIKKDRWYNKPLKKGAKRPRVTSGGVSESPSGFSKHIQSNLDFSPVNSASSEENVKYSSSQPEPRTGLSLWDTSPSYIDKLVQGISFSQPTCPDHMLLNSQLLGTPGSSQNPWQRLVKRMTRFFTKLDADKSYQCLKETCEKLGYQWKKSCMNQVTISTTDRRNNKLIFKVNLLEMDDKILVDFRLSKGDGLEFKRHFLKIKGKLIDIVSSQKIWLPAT
Description: as §1

CHK2(h) = CHK2(h) (Homo sapiens, UniProt O96017); details: 100 μM ATP, lower number = more robust inhibition
Description: as §1

CK2α2(h) = CK2α2(h) (Homo sapiens, UniProt P19784); details: 100 μM ATP, lower number = more robust inhibition
Description: as §1

CLK2(h) = CLK2(h) (Homo sapiens, UniProt P49760); details: 100 μM ATP, lower number = more robust inhibition
Description: as §1

EGFR(h) = EGFR(h) (Homo sapiens, UniProt P00533); details: 100 μM ATP, lower number = more robust inhibition
Description: as §1

Eph A 2(h) = Eph A 2(h) (Homo sapiens, UniProt P29317); details: 100 μM ATP, lower number = more robust inhibition
Description: as §1

GSK313(h) = GSK313(h) (Homo sapiens, UniProt P49841); details: 100 μM ATP, lower number = more robust inhibition
Description: as §1

IGF-1R(h) = IGF-1R(h) (Homo sapiens, UniProt P08069); details: 100 μM ATP, lower number = more robust inhibition
Description: as §1

IKKβ(h) = IKKβ(h) (Homo sapiens, UniProt O14920); details: 100 μM ATP, lower number = more robust inhibition
Description: as §1

IR(h) = IR(h) (Homo sapiens, UniProt P06213); details: 100 μM ATP, lower number = more robust inhibition
Description: as §1

IRAK4(h) = IRAK4(h) (Homo sapiens, UniProt Q9NWZ3); details: 100 μM ATP, lower number = more robust inhibition
Chain of IRAK4(h) (Q9NWZ3 whole entry): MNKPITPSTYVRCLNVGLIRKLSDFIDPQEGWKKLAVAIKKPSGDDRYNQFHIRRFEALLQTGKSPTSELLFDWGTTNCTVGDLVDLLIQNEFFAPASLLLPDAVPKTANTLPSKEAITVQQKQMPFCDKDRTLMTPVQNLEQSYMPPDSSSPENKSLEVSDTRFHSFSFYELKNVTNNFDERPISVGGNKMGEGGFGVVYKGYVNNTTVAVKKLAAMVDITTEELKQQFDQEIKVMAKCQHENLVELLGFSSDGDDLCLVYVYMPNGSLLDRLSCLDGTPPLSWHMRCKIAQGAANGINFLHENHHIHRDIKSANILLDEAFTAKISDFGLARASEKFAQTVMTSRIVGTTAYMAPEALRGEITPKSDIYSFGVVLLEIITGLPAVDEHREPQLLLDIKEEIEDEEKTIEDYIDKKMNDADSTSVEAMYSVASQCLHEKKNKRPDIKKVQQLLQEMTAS
Description: as §1

JAK2(h) = JAK2(h) (Homo sapiens, UniProt O60674); details: 100 μM ATP, lower number = more robust inhibition
Chain of JAK2(h) (O60674 whole entry): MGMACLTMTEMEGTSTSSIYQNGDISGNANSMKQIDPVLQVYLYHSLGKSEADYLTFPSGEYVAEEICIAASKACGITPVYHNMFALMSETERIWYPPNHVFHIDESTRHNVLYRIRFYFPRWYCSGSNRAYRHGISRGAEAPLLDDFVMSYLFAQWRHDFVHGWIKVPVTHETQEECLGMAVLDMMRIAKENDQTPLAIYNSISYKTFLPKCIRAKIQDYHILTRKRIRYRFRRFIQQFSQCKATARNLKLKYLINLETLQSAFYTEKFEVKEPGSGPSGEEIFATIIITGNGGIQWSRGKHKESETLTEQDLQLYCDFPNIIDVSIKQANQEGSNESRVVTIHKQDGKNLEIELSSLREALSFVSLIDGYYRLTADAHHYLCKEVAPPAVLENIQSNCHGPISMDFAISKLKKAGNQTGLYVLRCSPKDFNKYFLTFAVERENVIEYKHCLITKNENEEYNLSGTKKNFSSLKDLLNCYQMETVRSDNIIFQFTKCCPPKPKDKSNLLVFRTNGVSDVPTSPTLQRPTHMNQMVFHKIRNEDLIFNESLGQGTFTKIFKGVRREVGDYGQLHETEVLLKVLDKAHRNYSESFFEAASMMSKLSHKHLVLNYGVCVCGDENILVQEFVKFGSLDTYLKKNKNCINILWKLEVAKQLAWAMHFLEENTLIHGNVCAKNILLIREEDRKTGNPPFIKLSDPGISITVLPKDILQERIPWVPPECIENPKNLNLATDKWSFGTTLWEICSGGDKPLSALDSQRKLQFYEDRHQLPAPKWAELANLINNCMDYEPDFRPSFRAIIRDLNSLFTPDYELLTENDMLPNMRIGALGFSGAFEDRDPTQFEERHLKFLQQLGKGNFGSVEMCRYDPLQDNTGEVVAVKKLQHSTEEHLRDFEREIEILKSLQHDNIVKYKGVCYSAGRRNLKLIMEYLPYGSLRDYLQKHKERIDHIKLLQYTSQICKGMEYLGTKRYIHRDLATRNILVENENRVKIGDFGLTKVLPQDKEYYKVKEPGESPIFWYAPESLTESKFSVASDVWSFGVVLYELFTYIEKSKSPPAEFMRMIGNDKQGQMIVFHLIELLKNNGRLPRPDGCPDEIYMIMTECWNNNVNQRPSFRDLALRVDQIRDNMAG
Description: as §1

JAK3(h) = JAK3(h) (Homo sapiens, UniProt P52333); details: 100 μM ATP, lower number = more robust inhibition
Description: as §1

PAK4(h) = PAK4(h) (Homo sapiens, UniProt O96013); details: 100 μM ATP, lower number = more robust inhibition
Description: as §1

PDGFRβ(h) = PDGFRβ(h) (Homo sapiens, UniProt P09619); details: 100 μM ATP, lower number = more robust inhibition
Description: as §1

PKA(h) = PKA(h) (Homo sapiens, UniProt P17612); details: 100 μM ATP, lower number = more robust inhibition
Description: as §1

PKCβ1(h) = PKCβ1(h) (Homo sapiens, UniProt P05771); details: 100 μM ATP, lower number = more robust inhibition
Description: as §1

Plk1(h) = Plk1(h) (Homo sapiens, UniProt P53350); details: 100 μM ATP, lower number = more robust inhibition
Description: as §1

Plk3(h) = Plk3(h) (Homo sapiens, UniProt Q9H4B4); details: 100 μM ATP, lower number = more robust inhibition
Description: as §1

Ret(h) = Ret(h) (Homo sapiens, UniProt P07949); details: for efficiency in targeting Ret(h): 100 μM ATP, lower number = more robust inhibition
Chain of Ret(h) (P07949 29-1114): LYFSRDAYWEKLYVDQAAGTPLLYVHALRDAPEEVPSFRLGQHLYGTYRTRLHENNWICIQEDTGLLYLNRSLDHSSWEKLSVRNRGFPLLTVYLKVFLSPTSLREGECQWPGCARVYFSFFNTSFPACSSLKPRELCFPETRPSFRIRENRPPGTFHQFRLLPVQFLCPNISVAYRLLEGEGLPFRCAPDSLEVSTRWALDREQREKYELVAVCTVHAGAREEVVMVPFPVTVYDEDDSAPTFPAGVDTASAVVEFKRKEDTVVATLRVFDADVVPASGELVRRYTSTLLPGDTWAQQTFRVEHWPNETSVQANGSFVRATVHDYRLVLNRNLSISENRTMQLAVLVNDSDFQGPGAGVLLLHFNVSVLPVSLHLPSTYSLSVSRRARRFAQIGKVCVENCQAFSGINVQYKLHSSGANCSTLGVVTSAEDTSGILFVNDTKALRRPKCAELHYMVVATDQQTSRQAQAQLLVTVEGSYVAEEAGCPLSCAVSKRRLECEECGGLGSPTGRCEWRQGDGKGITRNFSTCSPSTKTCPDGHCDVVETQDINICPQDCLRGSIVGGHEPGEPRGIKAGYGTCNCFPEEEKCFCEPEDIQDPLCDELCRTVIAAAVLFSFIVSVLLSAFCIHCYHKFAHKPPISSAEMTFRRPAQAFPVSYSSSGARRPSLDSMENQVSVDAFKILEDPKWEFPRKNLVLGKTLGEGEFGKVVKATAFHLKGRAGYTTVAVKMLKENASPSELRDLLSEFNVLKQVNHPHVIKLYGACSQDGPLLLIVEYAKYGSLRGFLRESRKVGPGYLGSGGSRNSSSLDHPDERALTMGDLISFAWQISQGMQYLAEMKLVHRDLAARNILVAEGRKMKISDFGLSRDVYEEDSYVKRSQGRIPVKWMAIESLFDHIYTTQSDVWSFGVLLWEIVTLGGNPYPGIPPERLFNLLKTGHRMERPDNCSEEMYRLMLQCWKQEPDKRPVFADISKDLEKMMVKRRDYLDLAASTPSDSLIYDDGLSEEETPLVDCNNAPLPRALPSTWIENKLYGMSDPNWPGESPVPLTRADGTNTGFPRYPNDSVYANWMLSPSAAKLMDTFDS
Description: as §1

Rsk3(h) = Rsk3(h) (Homo sapiens, UniProt Q15349); details: for efficiency in targeting Rsk3(h): 100 μM ATP, lower number = more robust inhibition
Chain of Rsk3(h) (Q15349 whole entry): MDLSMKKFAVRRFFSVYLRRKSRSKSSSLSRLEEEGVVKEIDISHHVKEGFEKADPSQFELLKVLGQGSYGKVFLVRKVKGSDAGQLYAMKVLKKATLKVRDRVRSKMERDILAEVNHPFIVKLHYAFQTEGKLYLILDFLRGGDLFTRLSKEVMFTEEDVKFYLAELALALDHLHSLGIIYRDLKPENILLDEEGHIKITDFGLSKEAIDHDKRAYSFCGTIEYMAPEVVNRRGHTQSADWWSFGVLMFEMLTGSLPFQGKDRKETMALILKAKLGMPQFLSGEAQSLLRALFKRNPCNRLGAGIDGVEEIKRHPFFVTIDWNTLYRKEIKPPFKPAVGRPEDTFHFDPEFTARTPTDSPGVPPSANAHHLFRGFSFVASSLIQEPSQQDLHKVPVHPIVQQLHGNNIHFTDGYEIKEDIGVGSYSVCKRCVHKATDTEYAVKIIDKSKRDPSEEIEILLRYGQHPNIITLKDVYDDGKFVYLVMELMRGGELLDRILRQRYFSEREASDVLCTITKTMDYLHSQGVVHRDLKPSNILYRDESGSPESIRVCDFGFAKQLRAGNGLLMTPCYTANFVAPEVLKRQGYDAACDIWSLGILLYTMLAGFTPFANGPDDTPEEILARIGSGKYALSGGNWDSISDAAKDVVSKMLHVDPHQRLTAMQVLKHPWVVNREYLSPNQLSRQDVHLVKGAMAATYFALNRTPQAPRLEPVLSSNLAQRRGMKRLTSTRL
Description: as §1

ZAP-70(h) = ZAP-70(h) (Homo sapiens, UniProt P43403); details: 100 μM ATP, lower number = more robust inhibition
Description: as §1

cSRC(h) = cSRC(h) (Homo sapiens, UniProt P12931); details: 100 μM ATP, lower number = more robust inhibition
Description: as §1

## Nc1nc(Nc2ccc3c(c2)CC[C@@H](N2CCCC2)CC3)nn1-c1cc2c(nn1)-c1ccccc1CCC2 [R428, 1H-1,2,4-Triazole-3,5-diamine, 1-(6,7-dihydro-5H-benzo[6,7]cyclohepta[1,2-c]pyridazin-3-yl) N3-[(7S)-6,7,8,9-tetrahydro-7-(1-pyrrolidinyl)-5H-benzocyclohepten-2-yl]-]
ALK4(h); R428 @ 1 μM
  efficiency in targeting ALK4(h): 84
ALK4(h); R428 @ 10 μM
  efficiency in targeting ALK4(h): 48
Aurora-A(h); R428 @ 1 μM
  efficiency in targeting Aurora-A(h): 20
Aurora-A(h); R428 @ 10 μM
  efficiency in targeting Aurora-A(h): 3
Aurora-A(h); at 1 and 10 μM
  inhibition of AuroraA (in words): potently inhibits
Aurora-B(h); R428 @ 1 μM
  efficiency in targeting Aurora-B(h): 1
Aurora-B(h); R428 @ 10 μM
  efficiency in targeting Aurora-B(h): 0
Aurora-B(h); at 1 and 10 μM
  inhibition of AuroraB (in words): potently inhibits
Blk(h); R428 @ 1 μM
  efficiency in targeting Blk(h): 27
Blk(h); R428 @ 10 μM
  efficiency in targeting Blk(h): 2
CDK1/cyclinB (Hh); R428 @ 1 μM
  efficiency in targeting CDK1/cyclinB (Hh): 101
CDK1/cyclinB (Hh); R428 @ 10 μM
  efficiency in targeting CDK1/cyclinB (Hh): 88
CHK1(h); R428 @ 1 μM
  efficiency in targeting CHK1(h): 71
CHK1(h); R428 @ 10 μM
  efficiency in targeting CHK1(h): 23
CHK2(h); R428 @ 1 μM
  efficiency in targeting CHK2(h): 47
CHK2(h); R428 @ 10 μM
  efficiency in targeting CHK2(h): 9
CK2α2(h); R428 @ 1 μM
  efficiency in targeting CK2α2(h): 112
CK2α2(h); R428 @ 10 μM
  efficiency in targeting CK2α2(h): 97
CLK2(h); R428 @ 1 μM
  efficiency in targeting CLK2(h): 78
CLK2(h); R428 @ 10 μM
  efficiency in targeting CLK2(h): 28
EGFR(h); R428 @ 1 μM
  efficiency in targeting EGFR(h): 89
EGFR(h); R428 @ 10 μM
  efficiency in targeting EGFR(h): 40
Eph A 2(h); R428 @ 1 μM
  efficiency in targeting Eph A 2(h): 54
Eph A 2(h); R428 @ 10 μM
  efficiency in targeting Eph A 2(h): 12
GSK313(h); R428 @ 1 μM
  efficiency in targeting GSK313(h): 106
GSK313(h); R428 @ 10 μM
  efficiency in targeting GSK313(h): 99
IGF-1R(h); R428 @ 1 μM
  efficiency in targeting IGF-1R(h): 93
IGF-1R(h); R428 @ 10 μM
  efficiency in targeting IGF-1R(h): 58
IKKβ(h); R428 @ 1 μM
  efficiency in targeting IKKβ(h): 86
IKKβ(h); R428 @ 10 μM
  efficiency in targeting IKKβ(h): 53
IR(h); R428 @ 1 μM
  efficiency in targeting IR(h): 83
IR(h); R428 @ 10 μM
  efficiency in targeting IR(h): 24
IRAK4(h); R428 @ 1 μM
  efficiency in targeting IRAK4(h): 94
IRAK4(h); R428 @ 10 μM
  efficiency in targeting IRAK4(h): 51
JAK2(h); R428 @ 1 μM
  efficiency in targeting JAK2(h): 96
JAK2(h); R428 @ 10 μM
  efficiency in targeting JAK2(h): 41
JAK3(h); R428 @ 1 μM
  efficiency in targeting JAK3(h): 69
JAK3(h); R428 @ 10 μM
  efficiency in targeting JAK3(h): 18
PAK4(h); R428 @ 1 μM
  efficiency in targeting PAK4(h): 97
PAK4(h); R428 @ 10 μM
  efficiency in targeting PAK4(h): 73
PDGFRβ(h); R428 @ 1 μM
  efficiency in targeting PDGFRβ(h): 37
PDGFRβ(h); R428 @ 10 μM
  efficiency in targeting PDGFRβ(h): 21
PKA(h); R428 @ 1 μM
  efficiency in targeting PKA(h): 88
PKA(h); R428 @ 10 μM
  efficiency in targeting PKA(h): 35
PKCβ1(h); R428 @ 1 μM
  efficiency in targeting PKCβ1(h): 102
PKCβ1(h); R428 @ 10 μM
  efficiency in targeting PKCβ1(h): 95
Plk1(h); R428 @ 1 μM
  efficiency in targeting Plk1(h): 83
Plk1(h); R428 @ 10 μM
  efficiency in targeting Plk1(h): 65
Plk3(h); R428 @ 1 μM
  efficiency in targeting Plk3(h): 101
Plk3(h); R428 @ 10 μM
  efficiency in targeting Plk3(h): 81
Ret(h); R428 @ 1 μM
  efficiency in targeting Ret(h): 1
Ret(h); R428 @ 10 μM
  efficiency in targeting Ret(h): 1
Ret(h); at 1 and 10 μM
  inhibition of Ret (in words): potently inhibits
Rsk3(h); R428 @ 1 μM
  efficiency in targeting Rsk3(h): 2
Rsk3(h); R428 @ 10 μM
  efficiency in targeting Rsk3(h): 1
Rsk3(h); at 1 and 10 μM
  inhibition of RSK3 (in words): potently inhibits
ZAP-70(h); R428 @ 1 μM
  efficiency in targeting ZAP-70(h): 92
ZAP-70(h); R428 @ 10 μM
  efficiency in targeting ZAP-70(h): 66
cSRC(h); R428 @ 1 μM
  efficiency in targeting cSRC(h): 51
cSRC(h); R428 @ 10 μM
  efficiency in targeting cSRC(h): 10
